Results on 22 compounds are retold here after patent US11773078B2, “Furin inhibitors” (Glaxosmithkline Intellectual Property Development Limited, priority 2018, dated 2023).

Molecules are shown by their SMILES. Where a name gives a salt, the structure may show the parent alone.

For assay [1], the target named is T1, Furin (108-574-Tev-Flag-His) enzyme (Homo sapiens, UniProt P09958).
T1 construct: Furin (108-574-Tev-Flag-His) enzyme was expressed and purified from CHO cells; TEV cleavage site (C); FLAG (C); His (C); made in house; host or cells: CHO cells
Nature of the assay: Furin enzyme assay. Type of assay: biochemical. The procedure, abridged:
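CHO-expressed, purified furin construct at 40 pM in 100 mM HEPES pH7.5, 1 mM CaCl2, 0.005% Triton X-100. Eleven-point 1:3 series, 0.00017–10 μM final, incubated 2 h at room temperature and read on Envision. pXC50 from four-parameter fit.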

For assay [2], the target named is T2, furin (endogenous protease) in U20S cells (Homo sapiens, UniProt P09958).
T2 construct: the endogenous protease cleaves GFP; endogenous in cells; host or cells: U2OS cells transduced with a BacMam reporter
Briefly: Furin cell-based assay (image-based, Golgi-targeted GFP with BMP10 furin/PCSK cleavage site).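 Further: Read-out is mean GFP fluorescence of Golgi puncta per cell by high-content imaging, retained when furin inhibited, over an eleven-point 0.00017–10 µM series, four-parameter fit.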 To be noted: 24-hour incubation, read-out: furin golgi cell pXC50 (converted).

T1 sequence (P09958 108-574): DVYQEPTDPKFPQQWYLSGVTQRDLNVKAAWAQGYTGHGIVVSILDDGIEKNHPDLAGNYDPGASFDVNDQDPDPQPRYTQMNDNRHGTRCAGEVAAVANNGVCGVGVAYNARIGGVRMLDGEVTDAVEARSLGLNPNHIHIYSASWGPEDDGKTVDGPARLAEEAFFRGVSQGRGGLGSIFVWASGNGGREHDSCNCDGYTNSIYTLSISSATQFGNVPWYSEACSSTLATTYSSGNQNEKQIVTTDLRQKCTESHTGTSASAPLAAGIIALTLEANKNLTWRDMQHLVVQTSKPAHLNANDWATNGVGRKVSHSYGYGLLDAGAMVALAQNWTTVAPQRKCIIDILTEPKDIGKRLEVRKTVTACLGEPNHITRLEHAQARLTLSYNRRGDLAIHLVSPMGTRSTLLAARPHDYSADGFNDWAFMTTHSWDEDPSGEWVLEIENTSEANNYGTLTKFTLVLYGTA
T2 sequence (P09958 108-794): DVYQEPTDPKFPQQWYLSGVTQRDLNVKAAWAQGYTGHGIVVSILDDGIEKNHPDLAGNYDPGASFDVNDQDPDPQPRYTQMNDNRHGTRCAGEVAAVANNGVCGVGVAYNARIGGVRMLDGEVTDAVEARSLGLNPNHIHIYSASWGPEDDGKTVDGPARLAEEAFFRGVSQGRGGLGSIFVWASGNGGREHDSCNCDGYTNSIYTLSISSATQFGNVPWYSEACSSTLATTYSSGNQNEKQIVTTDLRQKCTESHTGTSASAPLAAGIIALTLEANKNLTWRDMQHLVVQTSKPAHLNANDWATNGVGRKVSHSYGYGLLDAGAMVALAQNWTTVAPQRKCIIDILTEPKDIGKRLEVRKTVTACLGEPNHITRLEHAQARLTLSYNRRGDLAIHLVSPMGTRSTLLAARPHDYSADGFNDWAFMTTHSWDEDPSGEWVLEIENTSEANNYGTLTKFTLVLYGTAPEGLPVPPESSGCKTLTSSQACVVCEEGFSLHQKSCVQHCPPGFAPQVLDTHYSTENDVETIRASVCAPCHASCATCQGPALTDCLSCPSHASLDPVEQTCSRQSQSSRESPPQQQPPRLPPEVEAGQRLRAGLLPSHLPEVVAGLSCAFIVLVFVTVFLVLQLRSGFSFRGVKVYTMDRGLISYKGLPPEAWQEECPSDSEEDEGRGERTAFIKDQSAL

As to `NC(=O)CN1CCN(Cc2cc(Oc3cnc(N4CCN(CCC(=O)O)CC4)nc3)nc(-c3cc(Cl)cc(Cl)c3)c2)CC1` [Example 79, 3-(4-(5-((4-((4-(2-amino-2-oxoethyl)piperazin-1-yl)methyl)-6-(3,5-dichlorophenyl)pyridin-2-yl)oxy)pyrimidin-2-yl)piperazin-1-yl)propanoic acid], in assay [1], the “furin enzyme pIC50” value is 8.3. Besides, in assay [2], the EC50 was 79.4 nM.
The matching figures for `CS(=O)(=O)N[C@H]1[C@@H]2CCN(Cc3cc(Oc4cnc(N5CCN(CCC(=O)O)CC5)nc4)nc(-c4cc(Cl)cc(Cl)c4)c3)CC[C@@H]21` [Example 80, 3-(4-(5-((6-(3,5-dichlorophenyl)-4-(((1R,7S,8r)-8-(methylsulfonamido)-4-azabicyclo[5.1.0]octan-4-yl)methyl)pyridin-2-yl)oxy)pyrimidin-2-yl)piperazin-1-yl)propanoic acid]: 9.5 and 7.94 nM.
Taken in the same sequence, the figures for `CC(CCN1CCN(c2ncc(Oc3cc(CN4CC[C@@H]5[C@H](CC4)[C@H]5NS(C)(=O)=O)cc(-c4cc(Cl)cc(Cl)c4)n3)cn2)CC1)C(=O)O` (stereo partly drawn) [Example 81, 4-(4-(5-((6-(3,5-dichlorophenyl)-4-(((1R,7S,8r)-8-(methylsulfonamido)-4-azabicyclo[5.1.0]octan-4-yl)methyl)pyridin-2-yl)oxy)pyrimidin-2-yl)piperazin-1-yl)-2-methylbutanoic acid] were 9.4 and 6.31 nM.
The matching figures for `CC(=O)N[C@H]1[C@@H]2CCN(Cc3cc(Oc4cnc(N5CCN(CCC(C)C(=O)O)CC5)nc4)nc(-c4cc(Cl)cc(Cl)c4)c3)CC[C@@H]21` (stereo partly drawn) [Example 82, 4-(4-(5-((4-(((1R,7S,8r)-8-acetamido-4-azabicyclo[5.1.0]octan-4-yl)methyl)-6-(3,5-dichlorophenyl)pyridin-2-yl)oxy)pyrimidin-2-yl)piperazin-1-yl)-2-methylbutanoic acid]: 9.3 and 5.01 nM.
Regarding `CC(CCN1CCN(c2ncc(Oc3cc(CN4CCCC4)cc(-c4cc(Cl)cc(Cl)c4)n3)cn2)CC1)C(=O)O` (centres unmarked) [Example 83, 4-(4-(5-((6-(3,5-dichlorophenyl)-4-(pyrrolidin-1-ylmethyl)pyridin-2-yl)oxy)pyrimidin-2-yl)piperazin-1-yl)-2-methylbutanoic acid], the “furin enzyme pIC50” value in assay [1] is listed as 8.9. For the same compound, the EC50 in assay [2] is 50.1 nM.
For the compound `O=C(O)CCN1CCN(c2ncc(Oc3cc(CN4CCC(CNC(=O)C5CC5)CC4)cc(-c4cc(Cl)cc(Cl)c4)n3)cn2)CC1` [Example 84, 3-(4-(5-((4-((4-(cyclopropanecarboxamidomethyl)piperidin-1-yl)methyl)-6-(3,5-dichlorophenyl)pyridin-2-yl)oxy)pyrimidin-2-yl)piperazin-1-yl)propanoic acid], the “furin enzyme pIC50” value in assay [1] is reported as 9.3. The EC50 in assay [2] was 7.94 nM.
With `CP(C)(=O)CC1CCN(Cc2cc(Oc3ccc(N4CCN(CCC(=O)O)CC4)nc3)nc(-c3cc(Cl)cc(Cl)c3)c2)CC1` [Example 85, 3-(4-(5-((6-(3,5-dichlorophenyl)-4-((4-((dimethylphosphoryl)methyl)piperidin-1-yl)methyl)pyridin-2-yl)oxy)pyridin-2-yl)piperazin-1-yl)propanoic acid], the “furin enzyme pIC50” value in assay [1] is given as 8.1. The EC50 in assay [2] is 158 nM.
The matching figures for `NC(=O)CC1CCN(Cc2cc(Oc3cnc(N4CCNCC4)nc3)nc(-c3cc(Cl)cc(Cl)c3)c2)CC1` [Example 86, 2-(1-((2-(3,5-Dichlorophenyl)-6-((2-(piperazin-1-yl)pyrimidin-5-yl)oxy)pyridine-4-yl)methyl)piperidin-4-yl)acetamide, 4 hydrochloride]: 8.9 and 10 nM.
Taken in the same sequence, the figures for `CN1CCN(c2ncc(Oc3cc(CN4CCC(CCS(N)(=O)=O)CC4)cc(-c4cc(Cl)cc(Cl)c4)n3)cn2)CC1` [Example 87, 2-(1-((2-(3,5-Dichlorophenyl)-6-((2-(4-methylpiperazin-1-yl)pyrimidin-5-yl)oxy)pyridin-4-yl)methyl)piperidin-4-yl)ethanesulfonamide, 4 hydrochloride] were 9 and 3.98 nM.
Take `CC(=O)NCC1CCN(Cc2cc(Oc3cnc(N4CCN(CCC(N)=O)CC4)nc3)nc(-c3cc(Cl)cc(Cl)c3)c2)CC1` [Example 88, 3-(4-(5-((4-((4-(Acetamidomethyl)piperidin-1-yl)methyl)-6-(3,5-dichlorophenyl)pyridin-2-yl)oxy)pyrimidin-2-yl)piperazin-1-yl)propanamide]: the “furin enzyme pIC50” value in assay [1] is 9.1. Further, the EC50 in assay [2] is 5.01 nM.
The matching figures for `CC(=O)NCC1CCN(Cc2cc(Oc3ccc(N4CCNCC4)nc3)nc(-c3cc(Cl)cc(Cl)c3)n2)CC1` [Example 89, N-((1-((2-(3,5-Dichlorophenyl)-6-((6-(piperazin-1-yl)pyridin-3-yl)oxy)pyrimidin-4-yl)methyl)piperidin-4-yl)methyl)acetamide, 4 hydrochloride]: 8 and 12.6 nM.
`CC(=O)NCC1CCN(Cc2cc(-c3cc(Cl)cc(Cl)c3)nc(Oc3ccc(N4CCNCC4)nc3)n2)CC1` [Example 90, N-((1-((6-(3,5-Dichlorophenyl)-2-((6-(piperazin-1-yl)pyridin-3-yl)oxy)pyrimidin-4-yl)methyl)piperidin-4-yl)methyl)acetamide]: the “furin enzyme pIC50” value in assay [1] was found to be 8.5. Moreover, the EC50 in assay [2] is 7.94 nM.
Taken in the same sequence, the figures for `CC(=O)NCC1(O)CCN(Cc2cc(Oc3cnc(N4CCNCC4)c(F)c3)nc(-c3cc(Cl)cc(Cl)c3)c2)CC1` [Example 91, N-((1-((2-(3,5-Dichlorophenyl)-6-((5-fluoro-6-(piperazin-1-yl)pyridin-3-yl)oxy)pyridin-4-yl)methyl)-4-hydroxypiperidin-4-yl)methyl)acetamide, 4 hydrochloride] were 8.4 and 39.8 nM.
For the compound `CC(=O)NCC1CCN(Cc2cc(Oc3cnc(N4CCNCC4)nc3)nc(-c3cc(Cl)cc(Cl)c3)c2)CC1` [Example 92, N-((1-((2-(3,5-Dichlorophenyl)-6-((2-(piperazin-1-yl)pyrimidin-5-yl)oxy)pyridin-4-yl)methyl)piperidin-4-yl)methyl)acetamide], in assay [1], the “furin enzyme pIC50” value is given as 8.9. Besides, in assay [2], the EC50 was 3.16 nM.
The matching figures for `CC(=O)NCC1CCN(Cc2cc(Oc3cnc(N4CCN(CCO)CC4)nc3)nc(-c3cc(Cl)cc(Cl)c3)c2)CC1` [Example 93, N-((1-((2-(3,5-dichlorophenyl)-6-((2-(4-(2-hydroxyethyl)piperazin-1-yl)pyrimidin-5-yl)oxy)pyridin-4-yl)methyl)piperidin-4-yl)methyl)acetamide, 4 hydrochloride]: 8.9 and 5.01 nM.
`CNC(=O)CCN1CCN(c2ncc(Oc3cc(CN4CCC(CNC(C)=O)CC4)cc(-c4cc(Cl)cc(Cl)c4)n3)cn2)CC1` [Example 94, 3-(4-(5-((4-((4-(Acetamidomethyl)piperidin-1-yl)methyl)-6-(3,5-dichlorophenyl)pyridin-2-yl)oxy)pyrimidin-2-yl)piperazin-1-yl)-N-methylpropanamide, 4 hydrochloride]: the “furin enzyme pIC50” value in assay [1] is reported as 8.9. Moreover, the EC50 in assay [2] was 5.01 nM.
For `CC(=O)NCC1CCN(Cc2cc(Oc3cnc(N4CCN(C(C)CC(N)=O)CC4)nc3)nc(-c3cc(Cl)cc(Cl)c3)c2)CC1` (centres unmarked) [Example 95, 3-(4-(5-((4-((4-(Acetamidomethyl)piperidin-1-yl)methyl)-6-(3,5-dichlorophenyl)pyridin-2-yl)oxy)pyrimidin-2-yl)piperazin-1-yl)butanamide, 4 hydrochloride], the “furin enzyme pIC50” value in assay [1] turned out to be 9.9. Moreover, in assay [2], the EC50 was 1.58 nM.
Taken in the same sequence, the figures for `CC(=O)NCC1CCN(Cc2cc(Oc3cnc(N4CCN(CCCC(N)=O)CC4)nc3)nc(-c3cc(Cl)cc(Cl)c3)c2)CC1` [Example 96, 4-(4-(5-((4-((4-(Acetamidomethyl)piperidin-1-yl)methyl)-6-(3,5-dichlorophenyl)pyridin-2-yl)oxy)pyrimidin-2-yl)piperazin-1-yl)butanamide] were 9 and 1.58 nM.
The matching figures for `CNC1CCN(c2ccc(Oc3cc(CNCCOC)cc(-c4cc(Cl)cc(Cl)c4)c3)cn2)CC1` [Example 97, 1-(5-((3′,5′-Dichloro-5-(((2-methoxyethyl)amino)methyl)-[1,1′-biphenyl]-3-yl)oxy)pyridin-2-yl)-N-methylpiperidin-4-amine]: 8.4 and 25.1 nM.
Taken in the same sequence, the figures for `CNCc1cc(Oc2ccc(N3CCNCC3)nc2)cc(-c2cc(Cl)cc(Cl)c2)c1` [Example 98, 1-(3′,5′-Dichloro-5-((6-(piperazin-1-yl)pyridin-3-yl)oxy)-[1,1′-biphenyl]-3-yl)-N-methylmethanamine, 3 hydrochloride] were 8.7 and 39.8 nM.
With `NCCNc1ccc(Oc2cc(CN3CCOCC3)cc(-c3cc(Cl)cc(Cl)c3)c2)cn1` [Example 99, N^1-(5-((3′,5′-Dichloro-5-(morpholinomethyl))-[1,1′-biphenyl]-3-yl)oxy)pyridin-2-yl)ethane-1,2-diamine, 3 hydrochloride], in assay [1], the “furin enzyme pIC50” value is listed as 7.2. Further, the EC50 in assay [2] is 251 nM.
As to `CNCc1cc(Oc2ccc(N3CCC(N)CC3)nc2)cc(-c2cc(Cl)cc(Cl)c2)c1` [Example 100, 1-(5-((3′,5′-Dichloro-5-((methylamino)methyl)-[1,1′-biphenyl]-3-yl)oxy)pyridin-2-yl)piperidin-4-amine, 3 hydrochloride], in assay [1], the “furin enzyme pIC50” value was determined as 8.8. Also, in assay [2], the EC50 is 79.4 nM.
